Test results taken from US20060122153A1, “Antineoplastic ether lipid compounds with modifications at the sn-2 carbon” (priority 2003, published 2006).
Entries after “also recorded” stand apart in the source; their conditions may differ.

Experiments:
SNB-19 = experiment: NCI growth inhibition screen, CNS panel; type: cell-based, human; design: key: = means equivalent activity; + means that it appears to be significantly better (i.e., by ˜2x); < means it appears to be less active than ET18OCH3 (˜2x); a combination like =/+ or </+ means that activity is dependent upon the isomer; a combination like =/+ or </+ means that activity is dependent upon the isomer; settings: SNB-19, CNS; from GI50s
Method: (§1) Candidates deemed suitable for in vivo testing were then synthesized in large scale quantities and some of this material was sent to the NCI's Developmental Therapeutics Program for a battery of growth inhibitory studies against various human tumor cell lines (60 cell lines, 9 different panels). The remainder of the material was used to assess in vivo efficacy using murine tumor models. Additionally, studies were conducted on the lead candidates to discern mechanism of action with particular emphasis on these agents apoptotic ability as measured by caspase 3 activity. The details (materials and methods) for these various assays are described further in the following discussion.
(§2) Ten compounds were also sent to NCI's Drug Discovery Program for screening against numerous human tumor cell lines (9 panels total: renal ovarian, colon, CNS, non-small cell lung, leukemia, breast, melanoma, and prostate). The data are shown in FIGS. 2a-i which also include data regarding D- and L-ET-18-OCH3 (listed as L-EL and D-EL in the figures). Upon examining the data, one is struck by how 1R and 1a′S standout in comparison to the other compounds, especially for the renal, ovarian, colon, and CNS panels.

SF-295 = experiment: NCI growth inhibition screen, CNS panel; type: cell-based, human; design: key: = means equivalent activity; + means that it appears to be significantly better (i.e., by ˜2x); < means it appears to be less active than ET18OCH3 (˜2x); a combination like =/+ or </+ means that activity is dependent upon the isomer; a combination like =/+ or </+ means that activity is dependent upon the isomer; settings: SF-295, CNS; from GI50s
Method: as §1, §2

SF-268 = experiment: NCI growth inhibition screen, CNS panel; type: cell-based, human; design: key: = means equivalent activity; + means that it appears to be significantly better (i.e., by ˜2x); < means it appears to be less active than ET18OCH3 (˜2x); a combination like =/+ or </+ means that activity is dependent upon the isomer; a combination like =/+ or </+ means that activity is dependent upon the isomer; settings: SF-268, CNS; from GI50s
Method: as §1, §2

U-251 = experiment: NCI growth inhibition screen, CNS panel; type: cell-based, human; design: key: = means equivalent activity; + means that it appears to be significantly better (i.e., by ˜2x); < means it appears to be less active than ET18OCH3 (˜2x); a combination like =/+ or </+ means that activity is dependent upon the isomer; a combination like =/+ or </+ means that activity is dependent upon the isomer; settings: U-251, CNS; from GI50s
Method: as §1, §2

B16/F10 melanoma = experiment: B16/F10 murine melanoma (iv./iv.) therapeutic model; type: in vivo, mice; settings: iv. treatment, lung tumor nodules
Method: Female C57/BL6 mice (5/group) were inoculated iv. with 5×10^4 cells in 0.2 mL PBS (day 0). On days 10, 12, 14, 16, & 18 post-tumor inoculation, mice were treated iv. with the ether lipid to be tested, along with ELL-12 (L), D-EL, L-EL or Control (0.9% NaCl). Mice were sacrificed by carbon dioxide inhalation on day 22, lungs were excised, inflated and fixed with 10% Formalin. Lungs were counted “blind” for tumor nodules using a magnifier. The mean number of nodules per treatment group was determined.

[1] = tested on: DEVDase activity (Caspase 3) in U937 cell line; experiment: DEVDase activity in U937 cell line; type: cell-based, human
Method: Suspension cells were seeded at density 3.2×10^5 cells per mL in RPMI-1640 medium (Bio-Whittaker) supplemented with 10% heat inactivated FBS (Bio-Whittaker). Cells were pre-incubated overnight prior to treatment with the ether lipid compounds of the invention. At treatment time cell density was 5×10^5 cells per mL. Cells were incubated with the ether lipid compounds of the invention for various periods of time, usually 6 hours. Cells were collected, washed with 1×DPBS and resuspended in 110 μl of Buffer A (10 mM BEPES-KOH, pH 7.4, 2 mM EDTA, 0.1% CHAPS, 5 mM DTT, 1:100 dilution of protease inhibitors cocktail (Sigma)-DTT and protease inhibitors should be added just before use). […]
Measurement of DEVDase activity was carried out in 100 μl volume, where 10 μg of protein was delivered in 50 μl of Buffer A and 40 μM of substrate Ac-DEVD-AMC was also delivered in 50 μl of Buffer A. All measurements were done in triplicates. Reaction was carried out for 1 hour and generation of fluorescent product of reaction (aminomethylcoumarin) was measured by reading fluorescence at 1em 460 nm (1ex 360 nm). Changes in DEVDase activity were calculated after subtraction of background fluorescence of substrate incubated without proteins, and were expressed as percent of control (DEVDase activity in untreated cells). […]

whole human blood = experiment: Hemolysis assay with whole human blood; settings: whole human blood; for H10: concentration producing 10% hemolysis; for H50: concentration producing 50% hemolysis
Method: Venous blood was collected in 10 mL Vacutainer tubes containing EDTA using a 21G needle or larger.
Stock solutions of 20 mM test sample in phosphate buffered saline (PBS) were prepared as follows:
Then 270 uL of whole blood was aliquotted in duplicate mini test tubes using positive displacement pipet. Next, 30 uL of each working stock solution, in duplicate, was added to the whole blood. Next, 30 uL of PBS was added for background control. The samples were capped or sealed with Parafilm and gently mixed. The blood was incubated at 37° C. in gentle rotating water bath for 30 minutes. Final concentration of test sample was 10% of working stock solution.
Total hemolysis samples of 1,% and 10% whole blood samples in deionized water were prepared as follows:
The samples were freeze thawed 3× in liquid nitrogen then wafer bath. The samples were then centrifuged 10 minutes at 1500 RPM. Next, 100 uL of supernatant was transferred to a cuvette and 1 mL deionized water was added. The absorbance was read at 550 nm vs. water blank.
H10 and H50 were calculated by graphing Percent Total Hemolysis vs. Test Sample Concentration. The Percent Total Henolysis=(average o.d of test sample)/(average o.d. of total hemolysis sample)×100

Row | Structure (SMILES) | Performance as compared to ET-18-O—CH3 (SNB-19) | Performance as compared to ET-18-O—CH3 (SF-295) | Performance as compared to ET-18-O—CH3 (SF-268) | Performance as compared to ET-18-O—CH3 (U-251) | activity against B16/F10 in mice (in words) (B16/F10 melanoma) | DEVDase activity compared to ET-18-OCH3 (in words) [1] | H10 (whole human blood) [µM] | H50 (whole human blood) [µM]
1 | CCCCCCCCCCCCCCCCCCOC[C@@H](COP(=O)([O-])OCC[N+](C)(C)C)OS(C)(=O)=O [1a′S] | 0 | 0 | 0 | =/+ | exhibited activity | equivalent to ET-18-OCH3; also recorded: more active than 1aR | 800 | >2000
2 | CCCCCCCCCCCCCCCCCCOCC(COP(=O)([O-])OCC[N+](C)(C)C)OS(C)(=O)=O (stereo not shown) [Compound 1aR] | = | = | = | + | no activity | equivalent to ET-18-OCH3 | 1000 | >2000
